Measurements: US20230286970A1, “NOVEL OXADIAZOLE-BASED SELECTIVE HDAC6 INHIBITORS” (ITALFARMACO S.P.A., priority 2020, published 2023)

What was measured:
recombinant human HDAC1 = recombinant human HDAC1 (Homo sapiens (Human), UniProt Q13547); assay: Enzymatic screening, HDAC1 inhibition (fluorogenic FdL_G substrate); assay type: biochemical
How it was run: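 Recombinant human HDAC1 inhibition was measured fluorometrically using the FLUOR DE LYS-Green (FdL_G) substrate. Compounds at 8 doses (1% DMSO final) in Tris-HCl pH 8 buffer with NaCl, Tween-20 and glycerol were preincubated in triplicate with enzyme and 1 mg/mL BSA, then given substrate. Developer I plus 2 μM TSA was added, and fluorescence read after 25 minutes in the dark.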

recombinant human HDAC6 = recombinant human HDAC6 (Homo sapiens (Human), UniProt Q9UBN7); assay: Enzymatic screening, HDAC6 inhibition (fluorogenic FdL_G substrate); assay type: biochemical
How it was run: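 Enzyme was preincubated with compound (8 doses, triplicate, 1% DMSO) in 25 mM Tris-HCl pH 8, 130 mM NaCl, 0.05% Tween-20, 10% glycerol, with BSA. A FLUOR DE LYS-Green substrate was then added, and fluorescence was read after developer plus 2 μM TSA.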

Sequence of recombinant human HDAC1 (Q13547 whole entry): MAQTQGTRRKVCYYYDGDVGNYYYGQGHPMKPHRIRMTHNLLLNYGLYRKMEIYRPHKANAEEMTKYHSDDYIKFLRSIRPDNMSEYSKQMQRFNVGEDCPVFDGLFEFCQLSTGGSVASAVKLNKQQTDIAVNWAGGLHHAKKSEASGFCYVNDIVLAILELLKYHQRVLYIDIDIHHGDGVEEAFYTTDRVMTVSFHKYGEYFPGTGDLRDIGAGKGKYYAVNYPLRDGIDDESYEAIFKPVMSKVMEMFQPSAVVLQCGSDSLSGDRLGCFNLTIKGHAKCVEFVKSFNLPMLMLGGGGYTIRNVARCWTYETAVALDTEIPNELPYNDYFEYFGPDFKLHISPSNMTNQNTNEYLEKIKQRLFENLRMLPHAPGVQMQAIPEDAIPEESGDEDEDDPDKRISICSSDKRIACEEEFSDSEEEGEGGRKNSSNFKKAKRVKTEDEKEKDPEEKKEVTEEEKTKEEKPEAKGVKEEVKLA
Sequence of recombinant human HDAC6 (Q9UBN7 whole entry): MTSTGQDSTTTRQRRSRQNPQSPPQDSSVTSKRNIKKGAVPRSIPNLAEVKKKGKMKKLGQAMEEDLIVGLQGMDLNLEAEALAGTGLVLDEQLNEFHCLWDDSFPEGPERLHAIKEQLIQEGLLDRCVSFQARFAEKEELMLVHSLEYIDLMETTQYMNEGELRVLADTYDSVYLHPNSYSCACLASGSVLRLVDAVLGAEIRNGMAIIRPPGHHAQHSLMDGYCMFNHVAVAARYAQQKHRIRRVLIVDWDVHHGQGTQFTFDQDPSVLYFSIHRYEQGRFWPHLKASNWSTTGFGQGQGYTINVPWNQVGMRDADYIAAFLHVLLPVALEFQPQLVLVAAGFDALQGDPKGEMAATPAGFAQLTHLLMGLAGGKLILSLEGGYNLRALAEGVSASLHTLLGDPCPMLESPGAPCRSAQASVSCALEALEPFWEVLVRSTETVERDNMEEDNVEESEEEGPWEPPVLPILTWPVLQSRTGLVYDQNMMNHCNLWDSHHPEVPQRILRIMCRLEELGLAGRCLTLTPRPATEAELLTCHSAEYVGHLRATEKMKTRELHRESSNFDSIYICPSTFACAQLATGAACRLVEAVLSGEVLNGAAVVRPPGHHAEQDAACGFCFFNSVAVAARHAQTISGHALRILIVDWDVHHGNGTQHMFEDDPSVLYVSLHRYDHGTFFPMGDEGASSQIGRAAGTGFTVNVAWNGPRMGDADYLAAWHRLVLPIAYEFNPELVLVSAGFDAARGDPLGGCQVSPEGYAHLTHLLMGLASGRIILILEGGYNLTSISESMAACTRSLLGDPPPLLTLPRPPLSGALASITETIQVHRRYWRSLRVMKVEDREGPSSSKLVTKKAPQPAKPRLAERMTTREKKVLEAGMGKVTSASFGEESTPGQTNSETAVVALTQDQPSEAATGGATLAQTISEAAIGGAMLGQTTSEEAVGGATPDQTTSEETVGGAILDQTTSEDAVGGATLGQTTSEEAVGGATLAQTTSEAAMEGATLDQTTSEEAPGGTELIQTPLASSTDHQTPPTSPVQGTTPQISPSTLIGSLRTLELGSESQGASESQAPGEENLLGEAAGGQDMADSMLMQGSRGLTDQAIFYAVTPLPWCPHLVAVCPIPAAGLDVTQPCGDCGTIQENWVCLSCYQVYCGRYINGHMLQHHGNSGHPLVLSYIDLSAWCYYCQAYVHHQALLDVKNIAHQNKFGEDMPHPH

| SMILES | IC50 (recombinant human HDAC1) | IC50 (recombinant human HDAC6) |
| --- | --- | --- |
| NC(=O)c1cccc(-c2cn(Cc3ccc(-c4nnc(C(F)F)o4)cn3)cn2)c1 [compd. 305, 3-[1-[[5-[5-(difluoromethyl)-1,3,4-oxadiazol-2-yl]pyridin-2-yl]methyl]imidazol-4-yl]benzamide] | > 1000 µM | 0.023 µM |
| O=C1Nc2ccc(-c3cn(Cc4ccc(-c5nnc(C(F)F)o5)cc4)nn3)cc2NC12CCNCC2 [compound 271, 7′-(1-(4-(5-(difluoromethyl)-1,3,4-oxadiazol-2-yl)benzyl)-1H-1,2,3-triazol-4-yl)-1′,4′-dihydro-3′H-spiro[piperidine-4,2′-quinoxalin]-3′-one] | > 200 µM | 0.043 µM |
| Cc1ncccc1-c1cn(Cc2ccc(-c3nnc(C(F)F)o3)cn2)nn1 [compound 115, 2-(difluoromethyl)-5-(6-((4-(2-methylpyridin-3-yl)-1H-1,2,3-triazol-1-yl)methyl)pyridin-3-yl)-1,3,4-oxadiazole] | > 200 µM | 0.043 µM |
| CS(=O)(=O)NCC[C@H](c1ccc(-c2nnc(C(F)F)o2)cc1)n1cc(-c2ccc(N)nc2)nn1 [compound 311, N-[(3R)-3-[4-(6-aminopyridin-3-yl)triazol-1-yl]-3-[4-[5-(difluoromethyl)-1,3,4-oxadiazol-2-yl]phenyl]propyl]methanesulfonamide] | > 1000 µM | 0.025 µM |
| Nc1cccc(-c2cn(Cc3ccc(-c4nnc(C(F)F)o4)cc3)cn2)c1 [compd. 197, 3-(1-(4-(5-(difluoromethyl)-1,3,4-oxadiazol-2-yl)benzyl)-1H-imidazol-4-yl)aniline] | > 200 µM | 0.107 µM |
| Nc1nc2ccc(-c3cn(Cc4ccc(-c5nnc(C(F)F)o5)c(F)c4F)nn3)cc2s1 [compound 341, 6-[1-[[4-[5-(difluoromethyl)-1,3,4-oxadiazol-2-yl]-2,3-difluorophenyl]methyl]triazol-4-yl]-1,3-benzothiazol-2-amine] | > 1000 µM | 0.135 µM |
| Cn1c(N)nc2cc(-n3cc(Cc4ccc(-c5nnc(C(F)F)o5)cc4)nn3)ccc21 [compound 414, 5-[4-({4-[5-(difluoromethyl)-1,3,4-oxadiazol-2-yl]phenyl}methyl)-1H-1,2,3-triazol-1-yl]-1-methyl-1H-1,3-benzodiazol-2-amine] | 1000 µM | 0.461 µM |
| O=C(NCC1CC1)C1CCCN(C(=O)c2ccc(-c3cn(Cc4c(F)cc(-c5nnc(C(F)F)o5)cc4F)nn3)cc2)C1 (centres unmarked) [compound 239, N-(cyclopropylmethyl)-1-(4-(1-(4-(5-(difluoromethyl)-1,3,4-oxadiazol-2-yl)-2,6-difluorobenzyl)-1H-1,2,3-triazol-4-yl)benzoyl)piperidine-3-carboxamide] | > 200 µM | 0.215 µM |
| CC(=O)Nc1cccc(-c2cn(Cc3c(F)cc(-c4nnc(C(F)F)o4)cc3F)nn2)c1 [compound 70, N-(3-(1-(4-(5-(difluoromethyl)-1,3,4-oxadiazol-2-yl)-2,6-difluorobenzyl)-1H-1,2,3-triazol-4-yl)phenyl)acetamide] | > 200 µM | 0.034 µM |
| CC(=O)N(Cc1ccco1)c1cccc(-c2cn(Cc3c(F)cc(-c4nnc(C(F)F)o4)cc3F)nn2)c1 [compound 183, N-(3-(1-(4-(5-(difluoromethyl)-1,3,4-oxadiazol-2-yl)-2,6-difluorobenzyl)-1H-1,2,3-triazol-4-yl)phenyl)-N-(furan-2-ylmethyl)acetamide] | > 200 µM | 0.093 µM |
| CNc1ncc2cc(-c3cn(Cc4ccc(-c5nnc(C(F)F)o5)c(F)c4F)nn3)ccc2n1 [compound 389, 6-[1-({4-[5-(difluoromethyl)-1,3,4-oxadiazol-2-yl]-2,3-difluorophenyl}methyl)-1H-1,2,3-triazol-4-yl]-N-methylquinazolin-2-amine] | 1000 µM | 0.192 µM |
| FC(F)c1nnc(-c2ccc(Cn3cc(-c4cccs4)nn3)nc2)o1 [compound 85, 2-(difluoromethyl)-5-(6-((4-(thiophen-2-yl)-1H-1,2,3-triazol-1-yl)methyl)pyridin-3-yl)-1,3,4-oxadiazole] | > 200 µM | 0.033 µM |
| O=C1NCc2ccc(-c3nnn(Cc4ncc(-c5nnc(C(F)F)o5)cn4)n3)cc21 [compound 107, 6-(2-((5-(5-(difluoromethyl)-1,3,4-oxadiazol-2-yl)pyrimidin-2-yl)methyl)-2H-tetrazol-5-yl)isoindolin-1-one] | > 200 µM | 0.041 µM |
| Cn1c(N)nc2cc(-c3cn(Cc4ccc(-c5nnc(C(F)F)o5)c(F)c4)nn3)ccc21 [compound 346, 5-[1-[[4-[5-(difluoromethyl)-1,3,4-oxadiazol-2-yl]-3-fluorophenyl]methyl]triazol-4-yl]-1-methylbenzimidazol-2-amine] | > 1000 µM | 0.026 µM |
| Nc1nccc2cc(-c3nnn(Cc4ccc(-c5nnc(C(F)F)o5)cc4F)n3)ccc12 [compound 397, 6-[2-[[4-[5-(difluoromethyl)-1,3,4-oxadiazol-2-yl]-2-fluorophenyl]methyl]tetrazol-5-yl]isoquinolin-1-amine] | 1000 µM | 0.057 µM |
| Nc1ccc(-c2noc(Cc3ccc(-c4nnc(C(F)F)o4)c(F)c3)n2)cc1 [compound 408, 4-(5-(4-(5-(difluoromethyl)-1,3,4-oxadiazol-2-yl)-3-fluorobenzyl)-1,2,4-oxadiazol-3-yl)aniline] | > 1000 µM | 0.08 µM |
| CC(C)(C)OC(=O)N1CCC2(CC1)Nc1cc(-c3cn(Cc4ccc(-c5nnc(C(F)F)o5)cc4)nn3)ccc1NC2=O [compound 268, tert-butyl 7′-(1-(4-(5-(difluoromethyl)-1,3,4-oxadiazol-2-yl)benzyl)-1H-1,2,3-triazol-4-yl)-3′-oxo-3′,4′-dihydro-1′H-spiro[piperidine-4,2′-quinoxaline]-1-carboxylate] | > 200 µM | 0.254 µM |
| CC(C)(C)OC(=O)NCC(=O)Nc1cccc(-c2cn(Cc3c(F)cc(-c4nnc(C(F)F)o4)cc3F)nn2)c1 [Compd. 172, tert-butyl (2-((3-(1-(4-(5-(difluoromethyl)-1,3,4-oxadiazol-2-yl)-2,6-difluorobenzyl)-1H-1,2,3-triazol-4-yl)phenyl)amino)-2-oxoethyl)carbamate] | > 200 µM | 0.086 µM |
| NCc1ccc(-c2nc(Cc3ccc(-c4nnc(C(F)F)o4)cc3)no2)cc1 [compound 191, (4-(3-(4-(5-(difluoromethyl)-1,3,4-oxadiazol-2-yl)benzyl)-1,2,4-oxadiazol-5-yl)phenyl)methanamine] | > 200 µM | 0.102 µM |
| Nc1ccc(-c2nnn(Cc3ncc(-c4nnc(C(F)F)o4)cn3)n2)cn1 [compound 77, 5-(2-((5-(5-(difluoromethyl)-1,3,4-oxadiazol-2-yl)pyrimidin-2-yl)methyl)-2H-tetrazol-5-yl)pyridin-2-amine] | > 200 µM | 0.035 µM |
| Nc1ncc2cc(-c3nnn(Cc4cc(F)c(-c5nnc(C(F)F)o5)cc4F)n3)ccc2n1 [compound 423, 6-(2-(4-(5-(difluoromethyl)-1,3,4-oxadiazol-2-yl)-2,5-difluorobenzyl)-2H-tetrazol-5-yl)quinazolin-2-amine] | 1000 µM | 0.099 µM |
| FC(F)c1nnc(-c2ccc(Cn3cc(-c4ccc5cn[nH]c5c4)nn3)cc2)o1 [compound 222, 2-(4-((4-(1H-indazol-6-yl)-1H-1,2,3-triazol-1-yl)methyl)phenyl)-5-(difluoromethyl)-1,3,4-oxadiazole] | > 200 µM | 0.16 µM |
| CS(=O)(=O)NCC(c1ccc(-c2nnc(C(F)F)o2)cc1)n1cc(-c2ccc(N)nc2)nn1 (centres unmarked) [compound 302, N-[2-[4-(6-aminopyridin-3-yl)triazol-1-yl]-2-[4-[5-(difluoromethyl)-1,3,4-oxadiazol-2-yl]phenyl]ethyl]methanesulfonamide] | > 1000 µM | 0.049 µM |
| Nc1ncnc2cc(-c3cn(Cc4ccc(-c5nnc(C(F)F)o5)cc4F)nn3)ccc12 [compound 387, 7-[1-({4-[5-(difluoromethyl)-1,3,4-oxadiazol-2-yl]-2-fluorophenyl}methyl)-1H-1,2,3-triazol-4-yl]quinazolin-4-amine] | 1000 µM | 0.012 µM |
| CN(Cc1ccncc1)Cc1ccc(-c2nnn(Cc3c(F)cc(-c4nnc(C(F)F)o4)cc3F)n2)cc1 [compound 201, N-(4-(2-(4-(5-(difluoromethyl)-1,3,4-oxadiazol-2-yl)-2,6-difluorobenzyl)-2H-tetrazol-5-yl)benzyl)-N-methyl-1-(pyridin-4-yl)methanamine] | > 200 µM | 0.115 µM |
| Nc1ccc(-c2nnnn2Cc2ncc(-c3nnc(C(F)F)o3)cn2)cn1 [compound 290, 5-(1-((5-(5-(difluoromethyl)-1,3,4-oxadiazol-2-yl)pyrimidin-2-yl)methyl)-1H-tetrazol-5-yl)pyridin-2-amine] | > 200 µM | 0.068 µM |
| CN(Cc1ccncc1)Cc1ccc(-c2nc(Cc3c(F)cc(-c4nnc(C(F)F)o4)cc3F)no2)cc1 [compound 254, N-(4-(3-(4-(5-(difluoromethyl)-1,3,4-oxadiazol-2-yl)-2,6-difluorobenzyl)-1,2,4-oxadiazol-5-yl)benzyl)-N-methyl-1-(pyridin-4-yl)methanamine] | > 200 µM | 0.361 µM |
| O=C1NCc2ccc(-c3cnn(Cc4ccc(-c5nnc(C(F)F)o5)cc4)c3)cc21 [compound 319, 6-[1-[[4-[5-(difluoromethyl)-1,3,4-oxadiazol-2-yl]phenyl]methyl]pyrazol-4-yl]-2,3-dihydroisoindol-1-one] | > 1000 µM | 0.087 µM |
